Experimental data published in ChEMBL document CHEMBL4680351, “Antimicrobial and cytotoxic effects of ammonium derivatives of diterpenoids steviol and isosteviol” (Bioorg Med Chem, 2021).
≈ marks a conversion by molar mass, not a printed value. Calls of active or inactive are those of the source. The calls are words filed in the database; no cut-off is given here.

Assays:
Staphylococcus aureus [1] = test: Bactericidal activity against Staphylococcus aureus MRSA-1 measured every 24 hrs for 5 days by serial dilution method; type: functional; settings: MRSA-1, 120 h, time 5 day
Staphylococcus aureus [2] = test: Antibacterial activity against Staphylococcus aureus 209P assessed as bacterial growth inhibition in Mueller-Hinton broth 2 measured every 24 hrs for 5 days by serial dilution method; type: functional; settings: 120 h, time 5 day
Staphylococcus aureus [3] = test: Bactericidal activity against Staphylococcus aureus MRSA-2 measured every 24 hrs for 5 days by serial dilution method; type: functional; settings: MRSA-2, 120 h, time 5 day
Staphylococcus aureus [4] = test: Antibacterial activity against Staphylococcus aureus MRSA-2 assessed as bacterial growth inhibition in Mueller-Hinton broth 2 measured every 24 hrs for 5 days by serial dilution method; type: functional; settings: MRSA-2, 120 h, time 5 day
Staphylococcus aureus [5] = test: Antibacterial activity against Staphylococcus aureus MRSA-1 assessed as bacterial growth inhibition in Mueller-Hinton broth 2 measured every 24 hrs for 5 days by serial dilution method; type: functional; settings: MRSA-1, 120 h, time 5 day
Staphylococcus aureus [6] = test: Bactericidal activity against Staphylococcus aureus 209P measured every 24 hrs for 5 days by serial dilution method; type: functional; settings: 120 h, time 5 day
[7] = Selectivity index, ratio of IC50 for human WI-38 cells to IC50 for human A549 cells; type: toxicity; settings: WI-38 cells versus A549 cells, read-out: Ratio IC50
HeLa = test: Cytotoxicity against human HeLa cells assessed as reduction in cell viability by DAPI staining based assay
Staphylococcus aureus [8] = test: Induction of morphological changes in Staphylococcus aureus 209P assessed as cytoplasmic disintegration at 3 uM by TEM analysis; type: functional, organism-based
Staphylococcus aureus [9] = test: Antibacterial activity against Staphylococcus aureus 209P assessed as bacterial growth inhibition; type: functional
MCF7 [10] = test: Induction of apoptosis in human MCF7 cells assessed as late apoptotic cells at 5 uM after 24 hrs by annexin V-FITC and propidium iodide staining based flow cytometry (reference value: 3.4 %); type: functional
[11] = Selectivity index, ratio of IC50 for human WI-38 cells to IC50 for human PC-3 cells; type: toxicity; settings: WI-38 cells versus PC-3 cells, read-out: Ratio IC50
Staphylococcus aureus [12] = test: Bacteriostatic activity against Staphylococcus aureus MRSA-2 measured every 24 hrs for 5 days by serial dilution method relative to amoxicillin; type: functional; settings: time 5 day
MCF7 [13] = test: Induction of apoptosis in human MCF7 cells assessed as activation of Bcl-2 at 5 uM after 24 hrs by fluorescence assay; type: functional, cell-based
Staphylococcus aureus [14] = test: Induction of morphological changes in Staphylococcus aureus 209P assessed as cell lysis at 3 uM by TEM analysis; type: functional, organism-based
MCF7 [15] = test: Induction of apoptosis in human MCF7 cells assessed as activation of p53 at 5 uM after 24 hrs by fluorescence assay; type: functional, cell-based
Cell membrane [16] = test: Induction of cytoplasmic membrane damage in Staphylococcus aureus 209P assessed as crystal violet absorption at 6 uM after 30 mins by crystal violet staining based microplate reader analysis (reference value: […] %); type: subcellular
MCF7 [17] = test: Induction of apoptosis in human MCF7 cells assessed as early apoptotic cells at 10 uM after 24 hrs by annexin V-FITC and propidium iodide staining based flow cytometry (reference value: 5.03 %); type: functional
HepG2 = test: Cytotoxicity against human HepG2 cells assessed as reduction in cell viability by DAPI staining based assay
MCF7 [18] = test: Induction of apoptosis in human MCF7 cells assessed as activation of caspase-9 at 5 uM after 24 hrs by fluorescence assay relative to control; type: functional
MCF7 [19] = test: Induction of apoptosis in human MCF7 cells assessed as dead cells at 5 uM after 24 hrs by annexin V-FITC and propidium iodide staining based flow cytometry (reference value: 0.15 %); type: functional
MCF7 [20] = test: Induction of mitochondrial membrane potential loss in human MCF7 cells assessed as cell population with mitochondrial membrane potential collapse at 5 uM after 24 hrs by JC-10 staining-based flow cytometric analysis (reference value: 1.05 %); type: functional
MCF7 [21] = test: Cytotoxicity against human MCF7 cells assessed as reduction in cell viability by DAPI staining based assay; type: functional
[22] = Selectivity index, ratio of IC50 for human WI-38 cells to IC50 for human HeLa cells; type: toxicity; settings: WI-38 cells versus HeLa cells, read-out: Ratio IC50
MCF7 [23] = test: Induction of mitochondrial membrane potential loss in human MCF7 cells assessed as cell population with intact mitochondrial membrane potential at 10 uM after 24 hrs by JC-10 staining-based flow cytometric analysis (reference value: 98.73 %); type: functional
[24] = Selectivity index, ratio of IC50 for human WI-38 cells to IC50 for human T98G cells; type: toxicity; settings: WI-38 cells versus T98G cells, read-out: Ratio IC50
Cell membrane [25] = test: Induction of cytoplasmic membrane damage in Staphylococcus aureus 209P assessed as crystal violet absorption at 1.5 uM after 30 mins by crystal violet staining based microplate reader analysis (reference value: […] %); type: subcellular
[26] = Hemolytic activity against human erythrocytes after 1 hr by digital photoelectric colorimetric method; type: ADME, cell-based, Erythrocyte
T98G = test: Cytotoxicity against human T98G cells assessed as reduction in cell viability by DAPI staining based assay
PC-3 = test: Cytotoxicity against human PC-3 cells assessed as reduction in cell viability by DAPI staining based assay
[27] = Selectivity index, ratio of IC50 for human WI-38 cells to IC50 for human MCF7 cells; type: toxicity; settings: WI-38 cells versus MCF7 cells, read-out: Ratio IC50
Staphylococcus aureus [28] = test: Bacteriostatic activity against Staphylococcus aureus MRSA-1 measured every 24 hrs for 5 days by serial dilution method; type: functional, organism-based
Staphylococcus aureus [29] = test: Bacteriostatic activity against Staphylococcus aureus MRSA-2 measured every 24 hrs for 5 days by serial dilution method; type: functional, organism-based; settings: time 5.0 day
MCF7 [30] = test: Induction of apoptosis in human MCF7 cells assessed as viable cells at 10 uM after 24 hrs by annexin V-FITC and propidium iodide staining based flow cytometry (reference value: 91.42 %); type: functional; settings: read-out: Activity
MCF7 [31] = test: Induction of apoptosis in human MCF7 cells assessed as dead cells at 10 uM after 24 hrs by annexin V-FITC and propidium iodide staining based flow cytometry (reference value: 0.15 %); type: functional
Staphylococcus aureus [32] = test: Induction of morphological changes in Staphylococcus aureus 209P assessed as cell wall damage at 3 uM by TEM analysis; type: functional, organism-based
Staphylococcus aureus [33] = test: Induction of morphological changes in Staphylococcus aureus 209P assessed as change in cytoplasmic content at 3 uM by TEM analysis; type: functional, organism-based
MCF7 [34] = test: Induction of apoptosis in human MCF7 cells assessed as early apoptotic cells at 5 uM after 24 hrs by annexin V-FITC and propidium iodide staining based flow cytometry (reference value: 5.03 %); type: functional
[35] = Selectivity index, ratio of IC50 for human WI-38 cells to IC50 for human HepG2 cells; type: toxicity; settings: WI-38 cells versus HepG2 cells, read-out: Ratio IC50
MCF7 [36] = test: Induction of apoptosis in human MCF7 cells assessed as activation of Akt at 5 uM after 24 hrs by fluorescence assay; type: functional, cell-based
Cell membrane [37] = test: Induction of cytoplasmic membrane damage in Staphylococcus aureus 209P assessed as crystal violet absorption at 0.7 uM after 30 mins by crystal violet staining based microplate reader analysis (reference value: […] %); type: subcellular
MCF7 [38] = test: Induction of apoptosis in human MCF7 cells assessed as activation of Bad at 5 uM after 24 hrs by fluorescence assay; type: functional, cell-based
MCF7 [39] = test: Induction of apoptosis in human MCF7 cells assessed as viable cells at 5 uM after 24 hrs by annexin V-FITC and propidium iodide staining based flow cytometry (reference value: 91.42 %); type: functional; settings: read-out: Activity
MCF7 [40] = test: Induction of mitochondrial membrane potential loss in human MCF7 cells assessed as cell population with intact mitochondrial membrane potential at 5 uM after 24 hrs by JC-10 staining-based flow cytometric analysis (reference value: 98.73 %); type: functional
MCF7 [41] = test: Induction of apoptosis in human MCF7 cells assessed as activation of JNK at 5 uM after 24 hrs by fluorescence assay; type: functional, cell-based
MCF7 [42] = test: Induction of mitochondrial membrane potential loss in human MCF7 cells assessed as cell population with mitochondrial membrane potential collapse at 10 uM after 24 hrs by JC-10 staining-based flow cytometric analysis (reference value: 1.05 %); type: functional
A549 = test: Cytotoxicity against human A549 cells assessed as reduction in cell viability by DAPI staining based assay
MCF7 [43] = test: Induction of apoptosis in human MCF7 cells assessed as late apoptotic cells at 10 uM after 24 hrs by annexin V-FITC and propidium iodide staining based flow cytometry (reference value: 3.4 %); type: functional
MCF7 [44] = test: Induction of apoptosis in human MCF7 cells assessed as activation of caspase-8 at 5 uM after 24 hrs by fluorescence assay; type: functional, cell-based
WI-38 = test: Cytotoxicity against human WI-38 cells assessed as reduction in cell viability by DAPI staining based assay
Cell membrane [45] = test: Induction of cytoplasmic membrane damage in Staphylococcus aureus 209P assessed as crystal violet absorption at 3 uM after 30 mins by crystal violet staining based microplate reader analysis (reference value: […] %); type: subcellular

Structure (SMILES): O=C(O)c1cn(C2CC2)c2cc(N3CCNCC3)c(F)cc2c1=O [CIPROFLOXACIN]
- MBC (Staphylococcus aureus [1]): 755 µM (≈ 250 µg/mL)
- MIC (Staphylococcus aureus [2]): 1.5 µM (≈ 0.497 µg/mL)
- MBC (Staphylococcus aureus [3]): 2.7 µM (≈ 0.895 µg/mL)
- MIC (Staphylococcus aureus [4]): 2.7 µM (≈ 0.895 µg/mL)
- MIC (Staphylococcus aureus [5]): 377 µM (≈ 125 µg/mL)
- MBC (Staphylococcus aureus [6]): 1.5 µM (≈ 0.497 µg/mL)

Structure (SMILES): C[C@@]12CC[C@@H]3[C@@](CC[C@H]4[C@@]3(C)CCC[C@@]4(C)C(=O)OCC[N+](C)(C)CCCCCCCCCCCC[N+](C)(C)CCOC(=O)[C@]3(C)CCC[C@@]4(C)[C@@H]5CC[C@@]6(C)C[C@]5(CC[C@@H]43)CC6=O)(CC1=O)C2.[Br-].[Br-]
- selectivity ratio [7]: 2
- IC50 (HeLa): 22 µM
- Activity (Staphylococcus aureus [8]): Active
- MIC (Staphylococcus aureus [9]): 0.7 µM
- Activity (MCF7 [10]): 25.95%
- selectivity ratio [11]: 1.9
- MBC (Staphylococcus aureus [1]): 2.8 µM
- fold change (FC) (Staphylococcus aureus [12]): 15
- Activity (MCF7 [13]): inactive
- Activity (Staphylococcus aureus [14]): Active
- Activity (MCF7 [15]): Active
- Activity (Cell membrane [16]): 63%
- Activity (MCF7 [17]): 41.39%
- IC50 (HepG2): 19.5 µM
- fold change (FC) (MCF7 [18]): >=2
- Activity (MCF7 [19]): 16.61%
- Activity (MCF7 [20]): 11.65%
- IC50 (MCF7 [21]): 5 µM
- selectivity ratio [22]: 1.1
- Activity (MCF7 [23]): 7.76%
- selectivity ratio [24]: 0.6
- Activity (Cell membrane [25]): 13%
- HC50 at 1 h [26]: 20.3 µM
- IC50 (T98G): 39.6 µM
- IC50 (PC-3): 13 µM
- selectivity ratio [27]: 5
- Activity (Staphylococcus aureus [28]): Active
- Activity (Staphylococcus aureus [29]): Active
- viability at 10 µM (MCF7 [30]): 24.9%
- Activity (MCF7 [31]): 5.24%
- Activity (Staphylococcus aureus [32]): Active
- Activity (Staphylococcus aureus [33]): Active
- MBC (Staphylococcus aureus [3]): 1.4 µM
- Activity (MCF7 [34]): 27.59%
- selectivity ratio [35]: 1.3
- Activity (MCF7 [36]): Active
- MIC (Staphylococcus aureus [4]): 1.4 µM
- Activity (Cell membrane [37]): 7%
- Activity (MCF7 [38]): Active
- viability at 5 µM (MCF7 [39]): 29.9%
- Activity (MCF7 [40]): 88.28%
- MIC (Staphylococcus aureus [5]): 2.8 µM
- Activity (MCF7 [41]): Active
- Activity (MCF7 [42]): 92.1%
- IC50 (A549): 12.5 µM
- Activity (MCF7 [43]): 28.47%
- MBC (Staphylococcus aureus [6]): 0.7 µM
- Activity (MCF7 [44]): inactive
- IC50 (WI-38): 25 µM
- Activity (Cell membrane [45]): 24%

Structure (SMILES): CC1(C)S[C@@H]2[C@H](NC(=O)[C@H](N)c3ccc(O)cc3)C(=O)N2[C@H]1C(=O)O [AMOXICILLIN]
- MBC (Staphylococcus aureus [1]): 85.7 µM (≈ 31.3 µg/mL)
- MIC (Staphylococcus aureus [2]): 0.7 µM (≈ 0.256 µg/mL)
- MBC (Staphylococcus aureus [3]): 85.7 µM (≈ 31.3 µg/mL)
- MIC (Staphylococcus aureus [4]): 85.7 µM (≈ 31.3 µg/mL)
- MIC (Staphylococcus aureus [5]): 85.7 µM (≈ 31.3 µg/mL)
- MBC (Staphylococcus aureus [6]): 2.5 µM (≈ 0.914 µg/mL)
